The subject of the assay is Mamu-A1*007:01. The assay is classed as binding, Macaca mulatta. The note with it: Table 4; for Relative binding (WT): binding relative to the WT epitope.

Where only a bound is given, the exact number is not on record here.

As for NYIYDRHGDTL [Peptide 3408.0007], the “Relative binding (WT)” value was less than 0.000003. Besides, the Fold decrease (fold decrease of binding affinity versus WT epitope) is listed as more than 350000.
On to SQGIRQILFL [Peptide 3408.0014], for which the “Relative binding (WT)” value worked out at 0.0035.
Take YHSNVKEL: the “Relative binding (WT)” value was determined as 1.0.
